Assay results: the NIST ThermoML archive (doi:10.1016/j.fluid.2008.03.004)

Assay: xn = mol fraction of the nth substance listed
Settings: 101 kPa, Liquid; for speed of sound: Sing-around technique in a fixed-path interferometer

CCOC(C)(C)C [2-ethoxy-2-methylpropane] + Cc1ccc(C)cc1
Settings	mass density [kg/m3]	speed of sound [m/s]
288.15 K, x1 = 0.062	857.461	1332.5
288.15 K, x1 = 0.123	849.969	1315.3
288.15 K, x1 = 0.238	836.401	1283.6
288.15 K, x1 = 0.35	822.903	1252.6
288.15 K, x1 = 0.455	810.328	1223.7
288.15 K, x1 = 0.557	798.162	1195.8
288.15 K, x1 = 0.654	786.517	1169.2
288.15 K, x1 = 0.746	775.593	1144.4
288.15 K, x1 = 0.834	764.97	1120.8
288.15 K, x1 = 0.902	756.828	1102.5
288.15 K, x1 = 0.959	749.995	1087.2
288.15 K, x1 = 1	744.955	1076.4
290.65 K, x1 = 0.062	855.329	1321.8
290.65 K, x1 = 0.123	847.837	1304.4
290.65 K, x1 = 0.238	834.222	1272.7
290.65 K, x1 = 0.35	820.676	1241.5
290.65 K, x1 = 0.455	808.058	1212.6
290.65 K, x1 = 0.557	795.855	1184.6
290.65 K, x1 = 0.654	784.174	1158
290.65 K, x1 = 0.746	773.205	1133.1
290.65 K, x1 = 0.834	762.549	1109.4
290.65 K, x1 = 0.902	754.379	1091
290.65 K, x1 = 0.959	747.527	1076
290.65 K, x1 = 1	742.482	1065.1
293.15 K, x1 = 0.062	853.16	1311
293.15 K, x1 = 0.123	845.64	1293.7
293.15 K, x1 = 0.238	831.974	1261.7
293.15 K, x1 = 0.35	818.389	1230.6
293.15 K, x1 = 0.455	805.723	1201.5
293.15 K, x1 = 0.557	793.481	1173.4
293.15 K, x1 = 0.654	781.767	1146.8
293.15 K, x1 = 0.746	770.753	1121.7
293.15 K, x1 = 0.834	760.076	1098.1
293.15 K, x1 = 0.902	751.872	1079.6
293.15 K, x1 = 0.959	745.006	1064.5
293.15 K, x1 = 1	739.947	1053.7
295.65 K, x1 = 0.062	850.963	1300.3
295.65 K, x1 = 0.123	843.426	1282.9
295.65 K, x1 = 0.238	829.705	1250.9
295.65 K, x1 = 0.35	816.087	1219.6
295.65 K, x1 = 0.455	803.381	1190.5
295.65 K, x1 = 0.557	791.102	1162.2
295.65 K, x1 = 0.654	779.339	1135.5
295.65 K, x1 = 0.746	768.276	1110.5
295.65 K, x1 = 0.834	757.573	1086.7
295.65 K, x1 = 0.902	749.342	1068.2
295.65 K, x1 = 0.959	742.457	1053.1
295.65 K, x1 = 1	737.374	1042.2
298.15 K, x1 = 0.062	848.771	1289.8
298.15 K, x1 = 0.123	841.223	1272.5
298.15 K, x1 = 0.238	827.443	1240.2
298.15 K, x1 = 0.35	813.789	1208.9
298.15 K, x1 = 0.455	801.037	1179.6
298.15 K, x1 = 0.557	788.722	1151.4
298.15 K, x1 = 0.654	776.911	1124.5
298.15 K, x1 = 0.746	765.812	1099.4
298.15 K, x1 = 0.834	755.077	1075.5
298.15 K, x1 = 0.902	746.808	1057
298.15 K, x1 = 0.959	739.904	1041.9
298.15 K, x1 = 1	734.806	1031
300.65 K, x1 = 0.062	846.559	1279.4
300.65 K, x1 = 0.123	839.002	1262.1
300.65 K, x1 = 0.238	825.16	1229.7
300.65 K, x1 = 0.35	811.468	1198.2
300.65 K, x1 = 0.455	798.683	1168.9
300.65 K, x1 = 0.557	786.313	1140.5
300.65 K, x1 = 0.654	774.466	1113.6
300.65 K, x1 = 0.746	763.325	1088.4
300.65 K, x1 = 0.834	752.561	1064.5
300.65 K, x1 = 0.902	744.252	1045.9
300.65 K, x1 = 0.959	737.326	1030.6
300.65 K, x1 = 1	732.225	1019.8
303.15 K, x1 = 0.062	844.378	1269.2
303.15 K, x1 = 0.123	836.793	1251.8
303.15 K, x1 = 0.238	822.9	1219.2
303.15 K, x1 = 0.35	809.173	1187.7
303.15 K, x1 = 0.455	796.342	1158.2
303.15 K, x1 = 0.557	783.933	1129.8
303.15 K, x1 = 0.654	772.039	1102.8
303.15 K, x1 = 0.746	760.846	1077.5
303.15 K, x1 = 0.834	750.063	1053.5
303.15 K, x1 = 0.902	741.716	1034.8
303.15 K, x1 = 0.959	734.772	1019.6
303.15 K, x1 = 1	729.647	1008.6
305.65 K, x1 = 0.062	–	1258.9
305.65 K, x1 = 0.123	–	1241.4
305.65 K, x1 = 0.238	–	1208.8
305.65 K, x1 = 0.35	–	1177.1
305.65 K, x1 = 0.455	–	1147.5
305.65 K, x1 = 0.557	–	1119
305.65 K, x1 = 0.654	–	1091.9
305.65 K, x1 = 0.746	–	1066.6
305.65 K, x1 = 0.834	–	1042.5
305.65 K, x1 = 0.902	–	1023.8
305.65 K, x1 = 0.959	–	1008.5
305.65 K, x1 = 1	–	997.52
